Source: patent US7943644B2, “Stabilization of iodine-containing biocides by means of special azole compounds” (LANXESS Deutschland GmbH, priority 2006, dated 2011)

Assay: Storage stability of IPBC in Dowanol TPM solution with cobalt dryer and azole stabilizer (HPLC)
Assay type: physicochemical
Conditions: 10% by weight IPBC, 5% Octasoligen-Cobalt 8, 5% stabilizer; for Amount of IPBC (start): HPLC at the beginning; for Amount of IPBC (2 weeks, 40° C.): stored at 40° C., HPLC after two weeks
Experimental: A solution was prepared in Dowanol TPM (tripropylene glycol methyl ether), containing 10% by weight of iodopropargyl butylcarbamate, 5% by weight of Octasoligen-Cobalt 8 (Borchers, Langenfeld, Germany) and 5% by weight of the azole compounds of the formula (I) specified as a stabilizer in Table 1. The mixture was stored at 40° C. The amount of IPBC was determined by means of HPLC at the beginning and after two weeks.

| SMILES | Amount of IPBC (start) [%] | Amount of IPBC (2 weeks, 40° C.) [%] |
| --- | --- | --- |
| Nc1nnc[nH]1 [Example 3] | 9.7 | 9.5 |
| Oc1nnc(S)[nH]1 [Example 2] | 9.9 | 8.9 |
| Sc1nnc[nH]1 [Example 1] | 10.2 | 9.0 |
| Nc1nnc(N)[nH]1 [Example 4] | 9.7 | 9.7 |
